Assay results reported in ChEMBL document CHEMBL4024702, “Covalent Modifiers: A Chemical Perspective on the Reactivity of α,β-Unsaturated Carbonyls with Thiols via Hetero-Michael Addition Reactions” (J Med Chem, 2017).

What was measured:
[1] = Thiol reactivity of the compound in DMSO/PBS buffer assessed as adduct formation by measuring half life of parent compound by 1H NMR analysis; format: physicochemical
[2] = Cysteine reactivity of the compound assessed as second order rate constant by 1H NMR analysis
[3] = Lysine reactivity of the compound in aqueous buffer assessed as drug recovery after 6 days at pH 7.4
[4] = Inhibition of wild-type HCV genotype 1b protease using 5-FAM/QXL 520 as substrate after 60 to 90 mins by FRET-based assay; design: species or system Hepatitis C virus subtype 1b
[5] = Thiol reactivity of the compound assessed as equilibrium constant for adduct formation
[6] = Glutathione reactivity of the compound in DMSO and phosphate buffer assessed as second order rate constant for adduct formation
[7] = Thiol reactivity of the compound in PBS buffer assessed as adduct formation at 100 to 200 uM at pH 7.4 by UV-visible spectroscopic analysis
[8] = Glutathione reactivity of the compound in PBS buffer assessed as rate constant for 1,4-adduct formation at pH 7.4
[9] = Glutathione reactivity of the compound in DMSO/HEPES buffer assessed as second order rate constant for adduct formation at pH 7.4 by spectroscopic analysis
Tetrahymena pyriformis = experiment: Toxicity in Tetrahymena pyriformis assessed as growth inhibition after 48 hrs
Papain (Carica papaya) = biological target: T1, Papain (Carica papaya) (UniProt P00784); experiment: Irreversible inhibition of Carica papaya papain assessed as ratio of Kinact to Ki
T1 sequence (whole entry): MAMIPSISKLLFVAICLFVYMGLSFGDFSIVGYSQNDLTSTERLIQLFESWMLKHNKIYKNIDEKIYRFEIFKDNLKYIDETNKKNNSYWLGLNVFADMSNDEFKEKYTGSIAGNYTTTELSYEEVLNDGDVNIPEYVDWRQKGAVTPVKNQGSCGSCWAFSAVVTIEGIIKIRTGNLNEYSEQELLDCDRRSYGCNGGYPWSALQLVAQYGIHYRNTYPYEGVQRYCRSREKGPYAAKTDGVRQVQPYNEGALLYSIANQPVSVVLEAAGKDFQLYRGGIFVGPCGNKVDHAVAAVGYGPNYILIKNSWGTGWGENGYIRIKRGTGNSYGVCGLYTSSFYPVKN

[10] = Cysteamine reactivity of the compound in TRIS-HCL assessed as second order rate constant at 40 uM and pH 7.4 by stopped-flow assay
Exportin-1 = Exportin-1 (Homo sapiens, UniProt O14980); experiment: Inhibition of CRM1-mediated nucleocytoplasmic transport in human HeLa cells after 90 mins by immunofluorescence assay; format: cell-based
Sequence of Exportin-1 (O14980 whole entry): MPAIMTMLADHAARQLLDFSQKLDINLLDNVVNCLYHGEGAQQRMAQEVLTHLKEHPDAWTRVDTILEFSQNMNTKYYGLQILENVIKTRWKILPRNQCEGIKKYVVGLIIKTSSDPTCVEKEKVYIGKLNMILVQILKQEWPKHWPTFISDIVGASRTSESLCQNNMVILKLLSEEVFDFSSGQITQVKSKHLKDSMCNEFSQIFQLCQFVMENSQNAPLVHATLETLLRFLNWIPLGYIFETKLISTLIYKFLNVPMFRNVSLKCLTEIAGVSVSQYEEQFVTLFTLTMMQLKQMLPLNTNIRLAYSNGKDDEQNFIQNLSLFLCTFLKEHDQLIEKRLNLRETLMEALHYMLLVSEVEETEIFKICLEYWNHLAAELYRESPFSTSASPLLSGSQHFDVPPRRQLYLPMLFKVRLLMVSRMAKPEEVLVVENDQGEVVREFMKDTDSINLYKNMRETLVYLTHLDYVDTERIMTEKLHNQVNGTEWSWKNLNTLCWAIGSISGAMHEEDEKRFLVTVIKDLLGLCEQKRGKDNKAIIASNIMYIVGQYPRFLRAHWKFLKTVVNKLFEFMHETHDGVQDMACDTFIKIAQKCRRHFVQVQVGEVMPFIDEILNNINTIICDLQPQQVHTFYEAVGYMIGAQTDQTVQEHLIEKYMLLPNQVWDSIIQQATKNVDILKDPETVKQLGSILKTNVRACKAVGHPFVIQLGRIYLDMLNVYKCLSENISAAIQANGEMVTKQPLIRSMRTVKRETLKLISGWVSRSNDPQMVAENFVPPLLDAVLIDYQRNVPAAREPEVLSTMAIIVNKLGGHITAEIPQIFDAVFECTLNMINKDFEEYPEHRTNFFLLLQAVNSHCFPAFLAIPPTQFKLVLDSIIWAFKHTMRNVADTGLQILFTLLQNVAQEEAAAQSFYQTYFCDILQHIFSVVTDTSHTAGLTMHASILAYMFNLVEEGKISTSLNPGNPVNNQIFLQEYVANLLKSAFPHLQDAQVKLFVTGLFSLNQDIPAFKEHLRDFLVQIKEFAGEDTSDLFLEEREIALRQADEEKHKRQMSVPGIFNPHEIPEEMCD

[11] = Inhibition of PI3K (unknown origin); design: species or system Homo sapiens
[12] = biological target: Sodium-dependent dopamine transporter (Rattus norvegicus, UniProt P23977); experiment: Inhibition of [3H]dopamine uptake at DAT in rat brain striatal synaptosomes by liquid scintillation counting analysis; format: subcellular, Striatum
Sequence of Sodium-dependent dopamine transporter (P23977 whole entry): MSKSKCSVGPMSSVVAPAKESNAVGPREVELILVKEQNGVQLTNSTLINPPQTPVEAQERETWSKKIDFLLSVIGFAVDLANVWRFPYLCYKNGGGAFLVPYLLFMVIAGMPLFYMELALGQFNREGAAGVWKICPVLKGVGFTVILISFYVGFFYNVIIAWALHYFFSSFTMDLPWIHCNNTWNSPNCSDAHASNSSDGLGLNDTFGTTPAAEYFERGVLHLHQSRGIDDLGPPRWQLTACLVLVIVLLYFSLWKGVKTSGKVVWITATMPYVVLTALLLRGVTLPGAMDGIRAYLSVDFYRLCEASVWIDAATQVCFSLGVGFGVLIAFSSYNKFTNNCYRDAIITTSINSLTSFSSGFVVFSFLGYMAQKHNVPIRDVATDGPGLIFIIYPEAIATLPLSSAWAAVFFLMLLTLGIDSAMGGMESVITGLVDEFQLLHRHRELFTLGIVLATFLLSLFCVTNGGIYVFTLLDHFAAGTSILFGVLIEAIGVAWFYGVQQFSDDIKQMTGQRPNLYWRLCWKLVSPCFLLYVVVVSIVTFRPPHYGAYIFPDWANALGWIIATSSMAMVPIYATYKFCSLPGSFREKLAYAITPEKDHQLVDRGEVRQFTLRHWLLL

[13] = DTT reactivity of the compound in acetonitrile to tris-HCL buffer at pH 7.4 by NMR spectroscopic analysis
[14] = Glutathione reactivity of the compound in acetonitrile to tris-HCL buffer at pH 7.4 by NMR spectroscopic analysis

Compound N#CC(c1ccncc1)C(SCCO)c1ccccc1 (stereo not given) has a t1/2 [1] of 4.6 min.

C=C1C(=O)O[C@H]2[C@H]1[C@H](OC(=O)/C(C)=C\C)CC(=C)[C@@H]1[C@H](O)[C@H]3O[C@@]3(C)[C@@]12O showed a K [2] of 42 M⁻¹ s⁻¹ and a Drug recovery [3] of 75%.

With C=C[C@@H]1C[C@]1(NC(=O)[C@@H]1C[C@@H](Oc2nccc3ccc(Br)cc23)CN1C(=O)[C@@H](C)NC(=O)CC)C(=O)CS(=O)(=O)C1CC1 the IC50 [4] was 1.15 µM.

Compound O=C1C=CCC1 has a Ke [5] of 3900 M⁻¹ and a K [6] of 25.6 M⁻¹ s⁻¹.

N#CC(C(N)=O)C(SCCO)c1ccc(-n2ccnc2)cc1 (stereo not given) showed a Kd [7] of 1300 µM.

With CC(O)C(CC1NC(C(=O)O)CS1)SC[C@H](C)C(=O)O (stereo not given in full) the K [8] was 1.1 M⁻¹ s⁻¹.

CCN(CC)c1ccc2cc(C(CC=O)SC[C@H](NC(=O)CC[C@H](N)C(=O)O)C(=O)NCC(=O)O)c(=O)oc2c1 (stereo not given in full) showed a K [9] of 0.41 M⁻¹ s⁻¹.

CC1=CC(=O)CC1 gave a Ke [5] of 0.88 M⁻¹, a K [6] of 0.074 M⁻¹ s⁻¹ and an EC50 (Tetrahymena pyriformis) of 20900 µM.

For COC(=O)/C=C/CNC(=O)c1cc(-c2ccc(C)cc2)no1, the Ratio (Papain (Carica papaya)) was 1.2 M⁻¹ s⁻¹.

C=C(C)C(=O)O[C@H]1CC2=C[C@@H](C[C@@]3(C)O[C@H]3[C@H]3OC(=O)C(=C)[C@@H]31)OC2=O gave a K [2] of 20 M⁻¹ s⁻¹ and a Drug recovery [3] of 75%.

N[C@@H](CCC(=O)N[C@@H](CSCCC=O)C(=O)NCC(=O)O)C(=O)O gave a K [8] of 120 M⁻¹ s⁻¹.

For COc1ccc(C(=O)C(Br)C(SCCN)c2ccc(OC)c(OC)c2)c(OC)c1 (stereo not given), the K [10] was 2.9 M⁻¹ s⁻¹.

With CCC(=C/C(C)C)/C=C/[C@@H]1OC(=O)C=C[C@@H]1C the IC50 (Exportin-1) was 0.025 µM.

Compound CCN(CC)c1ccc2cc(C(SC[C@H](NC(=O)CC[C@H](N)C(=O)O)C(=O)NCC(=O)O)C(C(C)=O)C(C)=O)c(=O)oc2c1 (stereo not given in full) has a K [9] of 12 M⁻¹ s⁻¹.

For CO[C@H]1OC(=O)/C(=C\SC(C)C)C2=C(O)C(=O)C3=C([C@H](OC(C)=O)C[C@]4(C)C(=O)CC[C@@H]34)[C@]21C, the IC50 [11] was 0.0001 µM.

C=CC(C)=O showed an IC50 [12] of 331 µM.

With COC(=O)/C=C/CNC(=O)C1CCN(C(=O)CC(C)C)CC1 the Ratio (Papain (Carica papaya)) was 0.5 M⁻¹ s⁻¹.

COC(=O)/C=C/CNC(=O)[C@H](CNC(C)=O)Cc1ccccc1 showed a Ratio (Papain (Carica papaya)) of 0.4 M⁻¹ s⁻¹.

Work on CC1OC(O)CC1SC[C@@H](N)C(=O)O (stereo not given in full) yielded a K [8] of 25 M⁻¹ s⁻¹.

N#CC(C(N)=O)C(SCCO)c1ccccc1 (stereo not given) gave a t1/2 [1] of under 1 min.

N#Cc1ccc(C(C#N)C(SCCO)c2ccccc2)cc1 (stereo not given) gave a t1/2 [1] of 8.9 min.

In the case of C=C(C)C(=O)OC, the K [6] is reported as 0.072 M⁻¹ s⁻¹ and the EC50 (Tetrahymena pyriformis) is reported as 16600 µM.

For CS(=O)(=O)c1ccc(-c2cccc(C(SCCO)C(C#N)C(N)=O)c2)cc1 (stereo not given), the Kd [7] was 200 µM.

With C/C=C(\C)C[C@H](C)[C@@H](O)[C@H](C)C(=O)[C@H](C)/C=C(C)/C=C/C[C@@H](C)/C=C(\C=C\[C@H]1CC=CC(=O)O1)CC the IC50 (Exportin-1) was 0.01 µM.

Work on O=C(/C=C/c1ccccc1)/C=C/c1ccccc1 yielded a DTT second-order rate constant [13] of 0.42 M⁻¹ s⁻¹ and an Activity [14] of 0.15 M⁻¹ s⁻¹.

C=CC(=O)NCC(=O)N1C[C@H](Oc2nccc3ccc(Br)cc23)C[C@H]1C(=O)N[C@]1(C(=O)CS(=O)(=O)C2CC2)C[C@H]1C=C gave an IC50 [4] of 0.002 µM.

With C=CC=O [ACROLEIN] the IC50 [12] was 52.5 µM.

In the case of C=C[C@@]12COC(=O)C(=C)[C@@H]1[C@H]1OC(=O)C(=C)[C@@H]1[C@@H](O)C2, the K [2] is reported as 200 M⁻¹ s⁻¹ and the Drug recovery [3] is reported as 75%.

O=C1/C(=C/c2ccccc2)CC/C1=C\c1ccccc1 showed a DTT second-order rate constant [13] of 2.3 M⁻¹ s⁻¹ and an Activity [14] of 9.3 M⁻¹ s⁻¹.

For C/C=C(\C)C=O [2-methyl-(E)-2-butenal], the K [6] was 0.474 M⁻¹ s⁻¹ and the EC50 (Tetrahymena pyriformis) was 1380 µM.

Compound COc1ccc(C(=O)C(C(SCCN)c2ccc(OC)c(OC)c2)[N+](=O)[O-])c(OC)c1 (stereo not given) has a K [10] of 750 M⁻¹ s⁻¹.

O=C(/C=C/c1ccc(O)cc1)/C=C/c1ccc(O)cc1 gave a DTT second-order rate constant [13] of 0.014 M⁻¹ s⁻¹ and an Activity [14] of 0.001 M⁻¹ s⁻¹.

For COc1ccc(C(=O)C(C#N)C(SCCN)c2ccc(OC)c(OC)c2)c(OC)c1 (stereo not given), the K [10] was 5700 M⁻¹ s⁻¹.

Compound COC(=O)/C=C/CNC(=O)[C@@H](CNC(C)=O)Cc1ccccc1 has a Ratio (Papain (Carica papaya)) of 6.6 M⁻¹ s⁻¹.
